Test results published in ChEMBL document CHEMBL1201862, “PubChem BioAssay data set” (2004).
The source made the active and inactive calls.

Key:
HEK293 [1] = assay: HEK293T cell viability loss, resazurin readout – resazurin fluorescence, cytotoxicity control for NF-kB activator project, SAR follow-up (AID 493251); type: functional, cell-based; settings: Homo sapiens
Jurkat = assay: SAR Analysis of small molecule inhibitors of T-cell specific antigen receptor-induced NF-kB activation in a Jurkat cell line using a luminescence assay - Set 2. [Related pubchem assays (depositor defined):AID435003, AID435012, AID465]; type: functional, cell-based; settings: Homo sapiens
HEK293 [2] = assay: SAR Analysis of small molecule inhibitors of T-cell specific antigen receptor-induced NF-kB activation in a HEK-293T cell line using a luminescence assay - Set 2. [Related pubchem assays (depositor defined):AID435003, AID435012, AID489026]; type: functional, cell-based; settings: Homo sapiens
[3] = target: Melanin-concentrating hormone receptor 1 (Homo sapiens, UniProt Q99705); assay: Late-stage fluorescence-based counterscreen for antagonists of the G-protein coupled receptor 7 (GPR7): cell-based dose response assay to identify antagonists of the melanin-concentrating hormone receptor 1 (MCHR1) Set 6.; type: functional
Sequence of Melanin-concentrating hormone receptor 1 (Q99705 whole entry): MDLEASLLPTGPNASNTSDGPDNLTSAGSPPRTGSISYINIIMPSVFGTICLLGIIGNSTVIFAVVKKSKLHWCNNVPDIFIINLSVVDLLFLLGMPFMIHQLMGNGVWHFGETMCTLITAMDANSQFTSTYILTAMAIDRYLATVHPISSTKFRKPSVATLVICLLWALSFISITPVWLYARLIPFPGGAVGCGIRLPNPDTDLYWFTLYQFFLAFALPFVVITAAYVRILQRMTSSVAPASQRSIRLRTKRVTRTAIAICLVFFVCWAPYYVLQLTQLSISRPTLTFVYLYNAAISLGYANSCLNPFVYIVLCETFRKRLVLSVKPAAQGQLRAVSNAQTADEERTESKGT

[4] = target: T1, Neuropeptides B/W receptor type 1 (Homo sapiens, UniProt P48145); assay: human NPBW1 receptor blockade, IC50 – cell-based, fluorescence, dose response, set 6, late-stage follow-up (AID 588583); type: functional
T1 sequence (P48145 whole entry): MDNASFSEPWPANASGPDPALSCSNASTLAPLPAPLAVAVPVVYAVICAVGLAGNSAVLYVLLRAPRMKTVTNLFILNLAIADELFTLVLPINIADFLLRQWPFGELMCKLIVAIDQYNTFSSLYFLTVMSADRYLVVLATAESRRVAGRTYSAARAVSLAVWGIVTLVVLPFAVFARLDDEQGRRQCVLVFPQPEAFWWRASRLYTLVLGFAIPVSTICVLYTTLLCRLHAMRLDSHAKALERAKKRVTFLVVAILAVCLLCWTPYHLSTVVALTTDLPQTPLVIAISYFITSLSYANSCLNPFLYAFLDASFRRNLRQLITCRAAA

HEK293 [5] = assay: EBV LMP1 TES2 canonical NF-kB signalling blockers – cell-based, HEK293, luciferase, cherry-pick, dose response (AID 588343); type: functional; settings: Homo sapiens
Melanocortin receptor 4 = Melanocortin receptor 4 (Homo sapiens, UniProt P32245); assay: inhibitors of MC4R cAMP signaling – cell-based, TR-FRET, biased antagonists, dose response (AID 602298); type: functional;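 also: antagonist potency against agonist-stimulated cAMP production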
Sequence of Melanocortin receptor 4 (P32245 whole entry): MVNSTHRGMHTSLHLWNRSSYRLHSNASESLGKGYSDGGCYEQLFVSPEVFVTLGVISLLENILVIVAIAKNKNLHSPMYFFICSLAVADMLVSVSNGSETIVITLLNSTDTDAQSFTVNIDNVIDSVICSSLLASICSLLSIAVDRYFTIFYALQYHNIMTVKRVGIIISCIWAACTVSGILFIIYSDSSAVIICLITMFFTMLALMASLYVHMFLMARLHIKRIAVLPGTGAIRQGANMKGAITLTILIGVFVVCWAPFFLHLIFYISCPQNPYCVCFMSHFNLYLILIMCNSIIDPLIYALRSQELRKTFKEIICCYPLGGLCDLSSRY

[6] = cAMP pathway inhibition in counterscreen cell line – TR-FRET cAMP detection, counter-screen for MC4R biased antagonist project, dose response (AID 602305); type: functional, cell-based;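 also: U2OS cells stimulated with forskolin near its EC80 as the cAMP inducer; potency is for inhibition of forskolin-stimulated cAMP signaling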
[7] = target: Beta-2 adrenergic receptor (Homo sapiens, UniProt P07550); assay: ADRB2 activation measured by internalization – cell-based, FAP fluorogen, flow cytometry, cherry pick 1, dose response (AID 588763); type: functional
Sequence of Beta-2 adrenergic receptor (P07550 whole entry): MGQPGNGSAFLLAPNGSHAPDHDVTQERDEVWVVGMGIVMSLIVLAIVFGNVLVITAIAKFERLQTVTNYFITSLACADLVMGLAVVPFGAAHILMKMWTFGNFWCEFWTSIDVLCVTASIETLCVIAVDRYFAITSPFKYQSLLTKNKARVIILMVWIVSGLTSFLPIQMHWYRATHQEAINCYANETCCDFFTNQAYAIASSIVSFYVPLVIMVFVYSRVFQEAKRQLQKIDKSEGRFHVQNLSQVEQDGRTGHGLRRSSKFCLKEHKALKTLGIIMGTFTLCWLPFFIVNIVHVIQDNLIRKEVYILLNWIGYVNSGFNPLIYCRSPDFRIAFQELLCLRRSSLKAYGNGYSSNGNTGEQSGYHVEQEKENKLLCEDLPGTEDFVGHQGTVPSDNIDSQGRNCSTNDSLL

[8] = target: T2, Endoribonuclease toxin MazF (Escherichia coli K-12, UniProt P0AE70); assay: activation of MazEF endoribonuclease cleavage – biochemical, fluorescence, single-stranded RNA substrate, uHTS hits, dose response (AID 588481); type: functional
T2 sequence (P0AE70 whole entry): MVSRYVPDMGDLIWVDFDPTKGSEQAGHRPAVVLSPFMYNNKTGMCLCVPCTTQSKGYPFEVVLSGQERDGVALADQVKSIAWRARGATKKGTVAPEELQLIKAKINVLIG

[9] = target: T2, Endoribonuclease toxin MazF; assay: substrate-only fluorescence increase artefacts – biochemical, single-stranded RNase substrate, counter-screen for MazEF activator project, dose response (AID 588502); type: functional
[10] = target: Delta-type opioid receptor (Homo sapiens, UniProt P41143); assay: Counterscreen for agonists of heterodimerization of the mu 1 (OPRM1) and delta 1 (OPRD1) opioid receptors: Luminescence-based cell-based high throughput dose response assay to identify agonists of OPRD1 homodimerization. [Related pubchem assays (depositor defined):AID504326, AID504355, AID504692, AID504904, AID504905]; type: functional
Sequence of Delta-type opioid receptor (P41143 whole entry): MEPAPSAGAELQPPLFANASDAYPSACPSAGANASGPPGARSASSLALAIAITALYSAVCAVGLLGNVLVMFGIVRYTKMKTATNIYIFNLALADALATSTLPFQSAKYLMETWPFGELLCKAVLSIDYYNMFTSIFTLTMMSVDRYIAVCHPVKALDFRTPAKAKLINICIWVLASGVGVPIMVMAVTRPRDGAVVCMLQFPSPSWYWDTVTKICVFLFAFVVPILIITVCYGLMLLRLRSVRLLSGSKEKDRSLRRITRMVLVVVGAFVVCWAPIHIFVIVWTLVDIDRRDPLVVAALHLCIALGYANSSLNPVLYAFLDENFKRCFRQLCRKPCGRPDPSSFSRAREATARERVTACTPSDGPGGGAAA

Mu-type opioid receptor = Mu-type opioid receptor (Homo sapiens, UniProt P35372); assay: Counterscreen for agonists of heterodimerization of the mu 1 (OPRM1) and delta 1 (OPRD1) opioid receptors: Luminescence-based cell-based high throughput dose response assay to identify agonists of OPRM1 homodimerization.; type: functional;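 also: U2OS cells expressing OPRM1 and beta-arrestin as split beta-galactosidase partners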
Sequence of Mu-type opioid receptor (P35372 whole entry): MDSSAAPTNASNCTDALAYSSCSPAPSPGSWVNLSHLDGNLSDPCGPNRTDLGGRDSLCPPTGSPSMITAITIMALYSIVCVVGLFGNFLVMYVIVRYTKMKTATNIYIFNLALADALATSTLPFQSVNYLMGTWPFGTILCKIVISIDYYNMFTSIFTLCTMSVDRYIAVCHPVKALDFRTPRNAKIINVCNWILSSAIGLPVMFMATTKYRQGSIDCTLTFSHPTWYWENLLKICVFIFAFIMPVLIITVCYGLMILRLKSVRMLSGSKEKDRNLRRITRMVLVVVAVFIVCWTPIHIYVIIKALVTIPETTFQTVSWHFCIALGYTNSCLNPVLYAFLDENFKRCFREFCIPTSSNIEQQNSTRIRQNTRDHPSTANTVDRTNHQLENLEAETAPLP

[11] = target: 5-hydroxytryptamine receptor 5A (Homo sapiens, UniProt P47898); assay: Counterscreen for agonists of OPRM1-OPRD1 heterodimerization: luminescence-based cell-based high throughput dose response assay to identify agonists of 5-hydroxytryptamine (serotonin) 5A receptor (HTR5A). [Related pubchem assays (depositor defined):AID504326, AID504355, AID504692, AID504904, AID504905]; type: functional
Sequence of 5-hydroxytryptamine receptor 5A (P47898 whole entry): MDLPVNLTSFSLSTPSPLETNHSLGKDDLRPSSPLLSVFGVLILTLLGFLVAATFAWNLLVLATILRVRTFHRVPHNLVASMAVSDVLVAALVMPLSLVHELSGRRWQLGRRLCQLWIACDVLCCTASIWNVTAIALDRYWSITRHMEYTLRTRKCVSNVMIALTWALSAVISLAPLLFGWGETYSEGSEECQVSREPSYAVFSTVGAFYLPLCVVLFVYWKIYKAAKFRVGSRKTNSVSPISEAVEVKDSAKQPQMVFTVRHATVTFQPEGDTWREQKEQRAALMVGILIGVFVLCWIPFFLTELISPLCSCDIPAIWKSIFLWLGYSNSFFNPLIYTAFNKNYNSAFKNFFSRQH

[12] = A549 cell cytotoxicity, dose response, cytotoxicity control, plate reader, cherry-pick, antagonist series (AID 743412); type: functional, cell-based
[13] = toxicity toward HepG2 liver cells – cell-based, plate reader, cherry-pick, antagonist series, cytotoxicity control, dose response (AID 743416); type: functional
[14] = blockers of bursicon-stimulated LGR2 cAMP reporter – cell-based, HEK293, CRE-luciferase reporter, cherry pick, set 2, dose response (AID 743343); type: functional;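 also: transfected cells were stimulated with diluted bursicon conditioned medium after compound addition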
[15] = blockade of melanocortin 4 receptor signaling – cell-based, plate reader, cherry pick, counter-screen for LGR2 antagonist project, dose response (AID 743444); type: functional;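 also: transfected HEK 293 cells stimulated with alpha-MSH peptide; potency of inhibitors of the alpha-MSH evoked signal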
[16] = viability loss in HEK293 cells – cell-based, plate reader, cherry-picked samples, cytotoxicity control, dose response (AID 743446); type: functional
[17] = target: DNA dC->dU-editing enzyme APOBEC-3G (Homo sapiens, UniProt Q9HC16); assay: inhibition of APOBEC3G ssDNA deamination – biochemical, fluorescence, single-stranded DNA substrate, SAR follow-up (AID 602136); type: functional; settings: read-out: IC50_Mean
Sequence of DNA dC->dU-editing enzyme APOBEC-3G (Q9HC16 whole entry): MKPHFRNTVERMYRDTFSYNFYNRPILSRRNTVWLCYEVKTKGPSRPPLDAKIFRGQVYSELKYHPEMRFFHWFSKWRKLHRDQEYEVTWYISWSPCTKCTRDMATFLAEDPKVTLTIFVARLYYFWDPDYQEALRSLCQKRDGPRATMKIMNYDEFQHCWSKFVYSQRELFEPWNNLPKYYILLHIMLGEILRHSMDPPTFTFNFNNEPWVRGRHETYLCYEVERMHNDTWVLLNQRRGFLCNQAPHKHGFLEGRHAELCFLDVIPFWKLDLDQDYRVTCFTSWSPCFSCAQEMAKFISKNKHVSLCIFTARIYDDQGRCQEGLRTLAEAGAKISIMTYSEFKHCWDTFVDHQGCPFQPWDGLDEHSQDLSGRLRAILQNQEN

[18] = target: DNA dC->dU-editing enzyme APOBEC-3A (Homo sapiens, UniProt P31941); assay: SAR analysis of small molecule inhibitors of APOBEC3A DNA Deaminase via a fluorescence-based single-stranded DNA deaminase assay.; type: functional; settings: read-out: IC50_Mean
Sequence of DNA dC->dU-editing enzyme APOBEC-3A (P31941 whole entry): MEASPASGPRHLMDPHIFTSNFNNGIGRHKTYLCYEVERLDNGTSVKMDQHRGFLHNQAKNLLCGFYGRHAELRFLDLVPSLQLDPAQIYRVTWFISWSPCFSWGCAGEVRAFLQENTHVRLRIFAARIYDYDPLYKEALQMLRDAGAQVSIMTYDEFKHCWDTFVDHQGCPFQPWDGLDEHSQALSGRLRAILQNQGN

[19] = luciferase reporter signal suppression in cells – H4 neuroglioma cells, luminescence, dose response (AID 1990); type: functional, cell-based
[20] = Luminescence Cell-Based Dose Response HTS to Identify Inhibitors of 5'UTR Stem-Loop Driven Prion Protein mRNA Translation in H4 Neuroglioblastoma Cells. [Related pubchem assays: 1827 (Project Summary), 1813 (Primary HTS)]; type: functional
[21] = alpha-synuclein stem-loop luciferase translation blockers – H4 neuroglioma cells, luminescence, confirmation (AID 1988); type: functional, cell-based
[22] = Trypanosoma cruzi growth suppression in host cells – NIH3T3 host cells, beta-gal luminescence, confirmation (AID 2044); type: functional, cell-based;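 also: intracellular parasites grown in NIH/3T3 mouse fibroblasts as host cells; luminescent beta-galactosidase reporter signal from transgenic T. cruzi replicating inside host cells; inhibitors lower the luminescence signal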
[23] = NIH3T3 cell viability loss – ATP luminescence, mouse fibroblasts, counter-screen, dose response (AID 2010); type: functional, cell-based;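 also: cells exposed to compound for about 90 hours before reading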
[24] = target: T3, Microphthalmia-associated transcription factor (Homo sapiens, UniProt O75030); assay: reducers of TRPM1 reporter luminescence, concentration series – cell-based, SK-MEL-5, cherry-picked, set 3, MITF inhibitor project, dose response (AID 493073); type: functional;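 also: SK-MEL-5 melanoma cells with luciferase driven by the MITF target TRPM1 promoter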
T3 sequence (O75030 whole entry): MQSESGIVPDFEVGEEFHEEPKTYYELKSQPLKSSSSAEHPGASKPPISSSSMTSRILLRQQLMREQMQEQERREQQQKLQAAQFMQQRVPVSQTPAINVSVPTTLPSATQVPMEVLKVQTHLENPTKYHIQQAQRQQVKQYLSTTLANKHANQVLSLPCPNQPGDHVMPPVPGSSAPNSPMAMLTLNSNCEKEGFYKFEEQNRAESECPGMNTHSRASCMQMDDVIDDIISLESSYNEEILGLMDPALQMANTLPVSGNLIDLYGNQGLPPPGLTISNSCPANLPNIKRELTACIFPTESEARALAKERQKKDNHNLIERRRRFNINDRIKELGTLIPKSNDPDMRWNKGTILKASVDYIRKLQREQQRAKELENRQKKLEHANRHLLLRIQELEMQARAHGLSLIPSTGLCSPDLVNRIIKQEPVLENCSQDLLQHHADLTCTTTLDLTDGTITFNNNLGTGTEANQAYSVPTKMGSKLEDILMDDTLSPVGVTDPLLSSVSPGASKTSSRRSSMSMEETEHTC

CC(C)CC(=O)NC(c1ccc(C(C)C)cc1)c1ccc2cccnc2c1O (stereo unspecified)
IC50 (HEK293 [1]): 18 µM (active)
IC50 (Jurkat): 2.49 µM (active)
IC50 (HEK293 [2]): 7.36 µM (active)

Cc1cnn(Cc2cccc3ccccc23)c(=O)c1C(C#N)c1ccccc1 (stereo unspecified)
IC50 [3]: 6.59 µM (active)
IC50 [4]: 6.59 µM (active)

COc1ccc2cc(-c3cc(C(=O)OCC(=O)Nc4c(C)n(C)n(-c5ccccc5)c4=O)c4ccccc4n3)ccc2c1
AC50 (HEK293 [5]): 1.07 µM (active)

CC(C)CN(C(=O)COC(=O)c1cnc(Cl)c(Cl)c1)c1c(N)n(Cc2ccccc2)c(=O)[nH]c1=O
IC50 (Melanocortin receptor 4): 11.1 µM (inactive)
IC50 [6]: > 64.6 µM (inactive)

Nc1cc(N)nc(SCc2cc([N+](=O)[O-])cc3c2OCOC3)n1
EC50 [7]: 1.18 µM (active)

CN(C)c1ccc(/C=N/N(CCC#N)C2=NS(=O)(=O)c3ccccc32)cc1
EC50 [8]: > 99 µM (inactive)
EC50 [9]: 42.5 µM (inactive)

CC(C)n1ncc2c(C(=O)Nc3cccc(C#N)c3)cc(C3CC3)nc21
EC50 [10]: > 92.5 µM (inactive)
EC50 (Mu-type opioid receptor): 18 µM (inactive)
EC50 [11]: > 92.5 µM (inactive)
AC50 [12]: 39.1 µM (active)
AC50 [13]: 21.8 µM (active)
AC50 [14]: 1.46 µM (active)
AC50 [15]: 0.789 µM (active)
AC50 [16]: 24.3 µM (active)

Cn1cccc1/C=C(/C#N)C(=O)Nc1cc(Cl)ccc1N1CCOCC1
IC50 [17]: > 99 µM (inactive)
IC50 [18]: > 99 µM (inactive)

CCN1CCN(c2ccc(NC(=O)c3ccc([N+](=O)[O-])o3)cc2Cl)CC1
EC50 [19]: > 120 µM (not active)
EC50 [20]: > 120 µM (not active)
EC50 [21]: 8.46 µM (active)
EC50 [22]: > 30 µM (not active)
EC50 [23]: 4.34 µM (active)
AC50 [24]: 9.54 µM (active)
IC50 (HEK293 [1]): 49.2 µM (inactive)
IC50 (Jurkat): 15.8 µM (active)
IC50 (HEK293 [2]): 16.5 µM (active)
EC50 [7]: 6.22 µM (active)
